Measurements from paper PMC4854315, “Discovery of a novel allosteric inhibitor-binding site in ERK5: comparison with the canonical kinase hinge ATP-binding site” (Acta Crystallographica. Section D, Structural Biology, 2016).

How the values were obtained:
Assay in all cases: Z'-LYTE kinase panel
Type in all cases: biochemical
AURKA (Aurora A) = target: T1, AURKA (Aurora A) (Homo sapiens, UniProt O14965)
T1 construct: purchased ThermoFisher (SelectScreen, Z'-LYTE)
T1 sequence (O14965 1-403): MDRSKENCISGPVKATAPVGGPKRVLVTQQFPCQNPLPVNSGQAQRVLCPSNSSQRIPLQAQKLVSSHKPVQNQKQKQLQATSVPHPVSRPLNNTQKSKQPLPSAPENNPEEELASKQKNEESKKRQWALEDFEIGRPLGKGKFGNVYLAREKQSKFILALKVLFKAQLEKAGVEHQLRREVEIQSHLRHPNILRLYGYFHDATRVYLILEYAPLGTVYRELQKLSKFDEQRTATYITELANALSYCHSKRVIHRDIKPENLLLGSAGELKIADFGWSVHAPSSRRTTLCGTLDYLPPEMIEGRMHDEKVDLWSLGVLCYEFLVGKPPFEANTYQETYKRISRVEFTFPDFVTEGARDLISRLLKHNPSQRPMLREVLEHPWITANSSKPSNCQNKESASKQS
How it was run: (§1)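 Percentage inhibition comes from a one-concentration (10 µM) Z′-LYTE screen run under standard protocol over 225 panel kinases.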

CLK2 = target: T2, CLK2 (Homo sapiens, UniProt P49760)
T2 construct: purchased ThermoFisher (SelectScreen, Z'-LYTE)
How it was run: as §1

PLK3 = target: T3, PLK3 (Homo sapiens, UniProt Q9H4B4)
T3 construct: purchased ThermoFisher (SelectScreen, Z'-LYTE)
How it was run: as §1

CSF1R (FMS) = target: T4, CSF1R (FMS) (Homo sapiens, UniProt P07333); conditions: 10 µM compound, ATP Km app
T4 construct: purchased ThermoFisher (SelectScreen, Z'-LYTE)
How it was run: as §1

PRKCD (PKC delta) = target: T5, PRKCD (PKC delta) (Homo sapiens, UniProt Q05655)
T5 construct: purchased ThermoFisher (SelectScreen, Z'-LYTE)
How it was run: as §1

MAPK14 (p38 alpha) = target: T6, MAPK14 (p38 alpha) (Homo sapiens, UniProt Q16539); conditions: 10 µM compound; ATP 100
T6 construct: purchased ThermoFisher (SelectScreen, Z'-LYTE)
How it was run: as §1

CSNK1E (CK1 epsilon) = target: T7, CSNK1E (CK1 epsilon) (Homo sapiens, UniProt P49674)
T7 construct: purchased ThermoFisher (SelectScreen, Z'-LYTE)
How it was run: as §1

MAPKAPK5 (PRAK) = target: T8, MAPKAPK5 (PRAK) (Homo sapiens, UniProt Q8IW41)
T8 construct: purchased ThermoFisher (SelectScreen, Z'-LYTE)
T8 sequence (Q8IW41 1-473): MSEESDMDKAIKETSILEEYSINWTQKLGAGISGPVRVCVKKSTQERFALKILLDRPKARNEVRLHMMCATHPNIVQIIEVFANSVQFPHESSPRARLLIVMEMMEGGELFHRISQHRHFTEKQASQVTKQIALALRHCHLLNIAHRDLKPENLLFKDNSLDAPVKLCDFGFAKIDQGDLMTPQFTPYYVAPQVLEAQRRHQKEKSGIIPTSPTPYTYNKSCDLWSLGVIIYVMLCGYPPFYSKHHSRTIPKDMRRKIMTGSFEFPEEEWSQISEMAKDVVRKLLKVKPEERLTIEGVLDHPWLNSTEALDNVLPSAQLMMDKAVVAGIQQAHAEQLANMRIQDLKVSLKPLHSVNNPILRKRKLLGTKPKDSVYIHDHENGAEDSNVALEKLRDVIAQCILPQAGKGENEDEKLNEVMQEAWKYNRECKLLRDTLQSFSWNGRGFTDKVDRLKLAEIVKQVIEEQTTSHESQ
How it was run: as §1

RPS6KA4 (MSK2) = target: T9, RPS6KA4 (MSK2) (Homo sapiens, UniProt O75676)
T9 construct: purchased ThermoFisher (SelectScreen, Z'-LYTE)
How it was run: as §1

AMPK A1/B1/G1 = target: T10, AMPK A1/B1/G1 (Homo sapiens, UniProt Q13131)
T10 construct: purchased ThermoFisher (SelectScreen, Z'-LYTE)
How it was run: as §1

PRKCH (PKC eta) = target: T11, PRKCH (PKC eta) (Homo sapiens, UniProt P24723)
T11 construct: purchased ThermoFisher (SelectScreen, Z'-LYTE)
How it was run: as §1

BRAF = target: T12, BRAF (Homo sapiens, UniProt P15056); conditions: 10 µM compound; ATP 100
T12 construct: purchased ThermoFisher (SelectScreen, Z'-LYTE)
How it was run: as §1

HIPK1 (Myak) = target: T13, HIPK1 (Myak) (Homo sapiens, UniProt Q86Z02)
T13 construct: purchased ThermoFisher (SelectScreen, Z'-LYTE)
How it was run: as §1

FGFR1 = target: T14, FGFR1 (Homo sapiens, UniProt P11362)
T14 construct: purchased ThermoFisher (SelectScreen, Z'-LYTE)
How it was run: as §1

EPHA4 = target: T15, EPHA4 (Homo sapiens, UniProt P54764)
T15 construct: purchased ThermoFisher (SelectScreen, Z'-LYTE)
How it was run: as §1

PTK2B (FAK2) = target: T16, PTK2B (FAK2) (Homo sapiens, UniProt Q14289)
T16 construct: purchased ThermoFisher (SelectScreen, Z'-LYTE)
How it was run: as §1

PDK1 Direct = target: T17, PDK1 Direct (Homo sapiens, UniProt O15530)
T17 construct: purchased ThermoFisher (SelectScreen, Z'-LYTE)
T17 sequence (O15530 1-556): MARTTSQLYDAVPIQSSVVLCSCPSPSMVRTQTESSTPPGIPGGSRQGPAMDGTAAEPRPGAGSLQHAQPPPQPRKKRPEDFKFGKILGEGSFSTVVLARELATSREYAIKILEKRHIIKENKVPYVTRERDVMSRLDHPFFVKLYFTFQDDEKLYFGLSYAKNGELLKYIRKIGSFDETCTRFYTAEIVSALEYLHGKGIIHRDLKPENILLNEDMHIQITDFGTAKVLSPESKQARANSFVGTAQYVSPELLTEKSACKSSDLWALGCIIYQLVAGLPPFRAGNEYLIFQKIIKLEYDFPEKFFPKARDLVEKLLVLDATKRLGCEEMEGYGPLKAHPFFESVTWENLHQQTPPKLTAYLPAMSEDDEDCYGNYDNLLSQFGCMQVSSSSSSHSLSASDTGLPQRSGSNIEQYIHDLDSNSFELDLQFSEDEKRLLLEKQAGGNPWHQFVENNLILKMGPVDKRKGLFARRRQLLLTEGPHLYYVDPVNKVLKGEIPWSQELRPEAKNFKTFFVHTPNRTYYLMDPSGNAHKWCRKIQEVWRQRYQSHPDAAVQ
How it was run: as §1

STK23 (MSSK1) = target: T18, STK23 (MSSK1) (Homo sapiens, UniProt Q9UPE1)
T18 construct: purchased ThermoFisher (SelectScreen, Z'-LYTE)
How it was run: as §1

CHEK2 (CHK2) = target: T19, CHEK2 (CHK2) (Homo sapiens, UniProt O96017)
T19 construct: purchased ThermoFisher (SelectScreen, Z'-LYTE)
How it was run: as §1

T12 sequence (P15056 whole entry): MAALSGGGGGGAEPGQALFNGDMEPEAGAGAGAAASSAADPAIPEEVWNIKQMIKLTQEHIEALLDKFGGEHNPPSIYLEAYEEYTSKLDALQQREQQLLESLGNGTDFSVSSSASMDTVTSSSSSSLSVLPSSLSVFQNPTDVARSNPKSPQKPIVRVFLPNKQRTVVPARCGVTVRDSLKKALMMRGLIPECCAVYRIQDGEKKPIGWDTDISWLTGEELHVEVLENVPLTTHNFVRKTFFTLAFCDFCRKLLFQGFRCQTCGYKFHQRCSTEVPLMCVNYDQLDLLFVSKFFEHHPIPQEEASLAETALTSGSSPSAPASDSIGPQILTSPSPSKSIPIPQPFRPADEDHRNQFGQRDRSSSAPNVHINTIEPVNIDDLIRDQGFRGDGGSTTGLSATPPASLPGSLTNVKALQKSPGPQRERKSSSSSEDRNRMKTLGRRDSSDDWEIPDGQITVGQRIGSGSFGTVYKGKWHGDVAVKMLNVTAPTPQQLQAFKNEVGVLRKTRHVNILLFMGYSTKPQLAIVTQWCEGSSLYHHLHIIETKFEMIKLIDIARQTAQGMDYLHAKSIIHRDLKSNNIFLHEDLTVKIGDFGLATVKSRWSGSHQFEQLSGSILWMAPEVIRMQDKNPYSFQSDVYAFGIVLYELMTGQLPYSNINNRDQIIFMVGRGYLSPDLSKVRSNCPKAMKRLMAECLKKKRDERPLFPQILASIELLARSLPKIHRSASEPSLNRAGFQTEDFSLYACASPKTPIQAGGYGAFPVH
T13 sequence (Q86Z02 whole entry): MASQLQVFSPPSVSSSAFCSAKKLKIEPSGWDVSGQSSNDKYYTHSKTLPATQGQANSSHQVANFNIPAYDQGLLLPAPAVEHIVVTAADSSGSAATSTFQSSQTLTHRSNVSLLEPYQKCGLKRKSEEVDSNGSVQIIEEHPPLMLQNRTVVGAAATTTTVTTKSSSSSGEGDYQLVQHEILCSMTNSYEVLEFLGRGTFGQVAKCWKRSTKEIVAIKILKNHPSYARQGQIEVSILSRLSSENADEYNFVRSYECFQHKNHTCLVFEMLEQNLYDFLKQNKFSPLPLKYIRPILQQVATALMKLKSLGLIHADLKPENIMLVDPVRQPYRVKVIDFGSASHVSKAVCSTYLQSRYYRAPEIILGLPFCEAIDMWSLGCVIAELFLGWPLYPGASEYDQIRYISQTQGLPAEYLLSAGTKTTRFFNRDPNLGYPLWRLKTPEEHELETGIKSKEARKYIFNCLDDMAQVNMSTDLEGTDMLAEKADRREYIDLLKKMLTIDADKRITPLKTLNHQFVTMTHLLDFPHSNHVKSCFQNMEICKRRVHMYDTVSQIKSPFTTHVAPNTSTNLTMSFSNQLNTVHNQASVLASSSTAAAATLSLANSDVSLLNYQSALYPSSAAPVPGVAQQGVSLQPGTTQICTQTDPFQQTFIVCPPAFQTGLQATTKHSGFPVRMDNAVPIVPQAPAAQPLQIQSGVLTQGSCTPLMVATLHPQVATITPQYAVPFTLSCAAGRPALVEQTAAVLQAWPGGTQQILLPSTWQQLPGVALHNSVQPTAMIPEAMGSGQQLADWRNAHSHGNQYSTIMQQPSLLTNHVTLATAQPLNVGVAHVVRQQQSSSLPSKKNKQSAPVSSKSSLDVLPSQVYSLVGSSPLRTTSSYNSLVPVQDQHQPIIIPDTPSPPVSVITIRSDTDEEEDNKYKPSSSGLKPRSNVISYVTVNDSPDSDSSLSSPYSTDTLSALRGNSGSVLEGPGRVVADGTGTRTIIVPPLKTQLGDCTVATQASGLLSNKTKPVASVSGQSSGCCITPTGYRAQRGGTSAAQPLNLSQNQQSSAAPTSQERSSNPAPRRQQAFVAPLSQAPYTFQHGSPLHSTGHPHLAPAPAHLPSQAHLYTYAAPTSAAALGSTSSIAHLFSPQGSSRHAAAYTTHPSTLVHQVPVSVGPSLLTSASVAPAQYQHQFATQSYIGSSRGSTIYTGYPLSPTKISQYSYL
T18 sequence (Q9UPE1 whole entry): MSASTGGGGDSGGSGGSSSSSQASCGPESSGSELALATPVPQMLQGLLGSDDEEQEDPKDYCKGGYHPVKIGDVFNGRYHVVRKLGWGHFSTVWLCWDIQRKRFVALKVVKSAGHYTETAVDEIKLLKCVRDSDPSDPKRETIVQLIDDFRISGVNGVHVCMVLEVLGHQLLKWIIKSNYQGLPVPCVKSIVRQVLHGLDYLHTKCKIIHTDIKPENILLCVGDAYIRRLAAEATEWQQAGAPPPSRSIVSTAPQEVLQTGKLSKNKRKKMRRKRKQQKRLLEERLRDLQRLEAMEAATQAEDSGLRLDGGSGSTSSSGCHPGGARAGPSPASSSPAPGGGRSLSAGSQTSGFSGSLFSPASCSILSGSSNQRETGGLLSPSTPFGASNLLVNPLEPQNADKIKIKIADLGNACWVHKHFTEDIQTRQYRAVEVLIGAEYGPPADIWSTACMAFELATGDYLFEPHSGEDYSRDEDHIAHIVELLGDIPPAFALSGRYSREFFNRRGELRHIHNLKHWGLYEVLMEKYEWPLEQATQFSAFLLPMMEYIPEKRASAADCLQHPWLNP
T7 sequence (P49674 whole entry): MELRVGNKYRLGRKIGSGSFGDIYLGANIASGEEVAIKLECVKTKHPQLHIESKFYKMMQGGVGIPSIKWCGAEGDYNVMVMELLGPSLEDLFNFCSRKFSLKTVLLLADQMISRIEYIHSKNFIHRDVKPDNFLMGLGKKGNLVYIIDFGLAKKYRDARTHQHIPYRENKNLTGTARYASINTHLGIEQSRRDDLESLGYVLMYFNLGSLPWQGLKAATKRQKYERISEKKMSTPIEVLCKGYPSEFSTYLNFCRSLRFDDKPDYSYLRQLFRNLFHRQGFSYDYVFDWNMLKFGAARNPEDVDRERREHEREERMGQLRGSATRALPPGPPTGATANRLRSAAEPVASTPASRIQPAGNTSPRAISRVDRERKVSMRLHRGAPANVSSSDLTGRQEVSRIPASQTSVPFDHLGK
T3 sequence (Q9H4B4 whole entry): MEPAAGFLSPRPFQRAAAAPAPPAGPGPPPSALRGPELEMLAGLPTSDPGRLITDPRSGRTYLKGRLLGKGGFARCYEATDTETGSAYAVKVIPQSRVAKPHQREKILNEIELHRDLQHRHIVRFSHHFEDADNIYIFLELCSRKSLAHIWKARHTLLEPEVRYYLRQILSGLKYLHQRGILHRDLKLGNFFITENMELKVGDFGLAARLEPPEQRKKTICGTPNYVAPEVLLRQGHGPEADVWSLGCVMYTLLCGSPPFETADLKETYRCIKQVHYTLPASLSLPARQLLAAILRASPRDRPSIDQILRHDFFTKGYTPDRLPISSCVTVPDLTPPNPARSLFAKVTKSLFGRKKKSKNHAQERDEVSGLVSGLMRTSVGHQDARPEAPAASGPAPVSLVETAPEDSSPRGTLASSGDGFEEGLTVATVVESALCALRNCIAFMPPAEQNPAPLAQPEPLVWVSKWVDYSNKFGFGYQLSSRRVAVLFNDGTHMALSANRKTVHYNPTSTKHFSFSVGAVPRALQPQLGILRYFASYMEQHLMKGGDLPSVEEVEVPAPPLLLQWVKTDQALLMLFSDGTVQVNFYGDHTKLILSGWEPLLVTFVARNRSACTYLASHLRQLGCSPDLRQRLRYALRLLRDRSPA
T5 sequence (Q05655 whole entry): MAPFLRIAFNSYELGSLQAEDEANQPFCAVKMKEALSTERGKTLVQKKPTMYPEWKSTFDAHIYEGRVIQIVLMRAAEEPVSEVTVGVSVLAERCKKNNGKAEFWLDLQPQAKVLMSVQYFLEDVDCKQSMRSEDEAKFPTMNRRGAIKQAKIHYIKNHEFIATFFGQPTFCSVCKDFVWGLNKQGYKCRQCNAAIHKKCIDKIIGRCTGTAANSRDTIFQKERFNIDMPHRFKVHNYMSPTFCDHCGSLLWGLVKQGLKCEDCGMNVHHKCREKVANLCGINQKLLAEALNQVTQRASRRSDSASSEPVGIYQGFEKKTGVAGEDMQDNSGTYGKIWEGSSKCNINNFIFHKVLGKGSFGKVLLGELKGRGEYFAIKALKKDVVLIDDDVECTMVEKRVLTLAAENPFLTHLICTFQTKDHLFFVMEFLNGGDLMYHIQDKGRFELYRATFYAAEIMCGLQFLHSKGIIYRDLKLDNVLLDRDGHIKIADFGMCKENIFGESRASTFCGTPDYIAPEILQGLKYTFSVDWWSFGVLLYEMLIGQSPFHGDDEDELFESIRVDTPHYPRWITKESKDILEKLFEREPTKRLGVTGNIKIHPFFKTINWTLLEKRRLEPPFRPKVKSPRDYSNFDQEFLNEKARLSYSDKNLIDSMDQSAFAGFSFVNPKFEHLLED
T19 sequence (O96017 whole entry): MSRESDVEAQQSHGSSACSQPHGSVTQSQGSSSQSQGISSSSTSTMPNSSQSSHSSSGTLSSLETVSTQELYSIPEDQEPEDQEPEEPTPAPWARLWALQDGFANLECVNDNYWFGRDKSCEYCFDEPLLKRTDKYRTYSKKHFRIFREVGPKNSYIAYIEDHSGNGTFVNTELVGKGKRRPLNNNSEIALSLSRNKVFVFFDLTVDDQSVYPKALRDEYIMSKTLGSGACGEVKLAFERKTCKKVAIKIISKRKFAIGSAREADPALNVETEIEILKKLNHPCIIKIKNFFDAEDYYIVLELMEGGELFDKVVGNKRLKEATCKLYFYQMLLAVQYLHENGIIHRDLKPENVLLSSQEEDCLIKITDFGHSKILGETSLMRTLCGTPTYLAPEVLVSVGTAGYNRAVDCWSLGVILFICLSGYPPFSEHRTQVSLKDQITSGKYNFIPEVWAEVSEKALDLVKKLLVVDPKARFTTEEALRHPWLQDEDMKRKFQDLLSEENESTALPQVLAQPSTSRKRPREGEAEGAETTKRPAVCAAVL

Molecule	inhibition at 10 µM (AURKA (Aurora A)) [%]	inhibition at 10 µM (CLK2) [%]	inhibition at 10 µM (PLK3) [%]	inhibition at 10 µM (CSF1R (FMS)) [%]	inhibition at 10 µM (PRKCD (PKC delta)) [%]	inhibition at 10 µM (MAPK14 (p38 alpha)) [%]	inhibition at 10 µM (CSNK1E (CK1 epsilon)) [%]	inhibition at 10 µM (MAPKAPK5 (PRAK)) [%]	inhibition at 10 µM (RPS6KA4 (MSK2)) [%]	inhibition at 10 µM (AMPK A1/B1/G1) [%]	inhibition at 10 µM (PRKCH (PKC eta)) [%]	inhibition at 10 µM (BRAF) [%]	inhibition at 10 µM (HIPK1 (Myak)) [%]	inhibition at 10 µM (FGFR1) [%]	inhibition at 10 µM (EPHA4) [%]	inhibition at 10 µM (PTK2B (FAK2)) [%]	inhibition at 10 µM (PDK1 Direct) [%]	inhibition at 10 µM (STK23 (MSSK1)) [%]	inhibition at 10 µM (CHEK2 (CHK2)) [%]	also measured
XMD8-92 [Compound 2, reference compound]	–	–	–	–	–	–	–	–	–	–	–	–	–	–	–	–	–	–	–	AURKA (Aurora A) % Inhibition (AURKA (Aurora A); 10 µM compound, ATP Km app): 85%; CLK2 % Inhibition (CLK2; 10 µM compound, ATP Km app): 6%; PLK3 % Inhibition (PLK3; 10 µM compound, ATP Km app): 99%; CSF1R (FMS) % Inhibition (CSF1R (FMS)): 29%; PRKCD (PKC delta) % Inhibition (PRKCD (PKC delta); 10 µM compound, ATP Km app): -3.55%; MAPK14 (p38 alpha) % Inhibition (MAPK14 (p38 alpha)): 99%; CSNK1E (CK1 epsilon) % Inhibition (CSNK1E (CK1 epsilon); 10 µM compound, ATP Km app): 4%; MAPKAPK5 (PRAK) % Inhibition (MAPKAPK5 (PRAK); 10 µM compound, ATP Km app): 11%; RPS6KA4 (MSK2) % Inhibition (RPS6KA4 (MSK2); 10 µM compound, ATP Km app): 12%; AMPK A1/B1/G1 % Inhibition (AMPK A1/B1/G1; 10 µM compound, ATP Km app): 55%; PRKCH (PKC eta) % Inhibition (PRKCH (PKC eta); 10 µM compound, ATP Km app): 41%; BRAF % Inhibition (BRAF): 15%; HIPK1 (Myak) % Inhibition (HIPK1 (Myak); 10 µM compound, ATP Km app): 6%; FGFR1 % Inhibition (FGFR1; 10 µM compound, ATP Km app): 8%; EPHA4 % Inhibition (EPHA4; 10 µM compound, ATP Km app): 19%; PTK2B (FAK2) % Inhibition (PTK2B (FAK2); 10 µM compound, ATP Km app): 20%; PDK1 Direct % Inhibition (PDK1 Direct; 10 µM compound, ATP Km app): -15%; STK23 (MSSK1) % Inhibition (STK23 (MSSK1); 10 µM compound, ATP Km app): 15%; CHEK2 (CHK2) % Inhibition (CHEK2 (CHK2); 10 µM compound, ATP Km app): 26%
Cc1ncc(-c2nc(Nc3ccc(C(=O)NCCN4CCCCC4)cc3)ncc2F)n1C(C)C [Compound 3]	82	92	73	94	97	22	81	45	89	95	54	90	83	73	55	94	89	15	88	–
Cc1cc(Nc2nc(N)nn2C(=O)NC(C)C)ccc1Cl [Compound 5]	78	39	18	> 80	1.15	26	2.61	-3.49	1.89	23	-18	12	-2.24	17	10	23	-1.67	-2.48	4.23	CSF1R (FMS) % Inhibition (CSF1R (FMS); listed as SN1109056190, 10 µM): 81%
